In patent US20170157143A1, “NORPREGNANE DERIVATIVES FOR THE RISK REDUCTION OF BREAST CANCER” (Helix Twelve Pharmaceuticals Corporation, Inc., priority 2015, published 2017):

Columns and labels:
breast carcinoma = assay: HLX-801 prophylactic therapy against breast cancer in at-risk subject groups compared to tamoxifen; format: in vivo, human
Protocol: Table 1: Exemplary effect of HLX-801 prophylactic therapy against breast cancer cells in at-risk subject groups compared to Tamoxifen (“TAM”) 1 mg.

[1] = Side effect profile of HLX-801; conditions: in vivo
Source text: The compounds are associated with the absence of the side effects that currently limit the adoption of the currently available tamoxifen and aromatase inhibition approaches by at risk individuals.

breast cancer = conditions: DCIS patients; cited from earlier work

For `CCN(CC)Cc1ccc(OCC[C@H]2CCC3C4[C@H](C)Cc5cc(O)ccc5[C@H]4CC[C@@]32C)c(OC)c1` (stereo partly drawn) [HLX-801, (7α)-21-[4-[(diethylamino)methyl]-2-methoxyphenoxy]-7-methyl-19-norpregna-1,3,5(10)-trien-3-ol 2-hydroxy-1,2,3-propanetricarboxylate], the “No. of subjects developing breast carcinoma” value (breast carcinoma; HLX-801 1 mg, patients group 7/17) was 3, the “No. of subjects developing breast carcinoma” value (breast carcinoma; HLX-801 1 mg, patients group 7/21) was 2 and the “No. of subjects developing breast carcinoma” value (breast carcinoma; HLX-801 1 mg, patients group 7/24) was 3. For the same compound, the “No. of subjects developing breast carcinoma” value (breast carcinoma; HLX-801 5 mg, patients group 7/17) was 1, the “No. of subjects developing breast carcinoma” value (breast carcinoma; HLX-801 5 mg, patients group 7/21) was 2 and the “No. of subjects developing breast carcinoma” value (breast carcinoma; HLX-801 5 mg, patients group 7/24) was 2. For the same compound, the “No. of subjects developing breast carcinoma” value (breast carcinoma; HLX-801 10 mg, patients group 7/17) was 1, the “No. of subjects developing breast carcinoma” value (breast carcinoma; HLX-801 10 mg, patients group 7/21) was 1 and the “No. of subjects developing breast carcinoma” value (breast carcinoma; HLX-801 10 mg, patients group 7/24) was 1. The “No. of subjects developing breast carcinoma” value (breast carcinoma; HLX-801 20 mg, patients group 7/17) was 1, the “No. of subjects developing breast carcinoma” value (breast carcinoma; HLX-801 20 mg, patients group 7/21) was 1 and the “No. of subjects developing breast carcinoma” value (breast carcinoma; HLX-801 20 mg, patients group 7/24) was 1. For the same compound, the “No. of subjects developing breast carcinoma” value (breast carcinoma; HLX-801 40 mg, patients group 7/17) was 1, the “No. of subjects developing breast carcinoma” value (breast carcinoma; HLX-801 40 mg, patients group 7/21) was 1 and the “No. of subjects developing breast carcinoma” value (breast carcinoma; HLX-801 40 mg, patients group 7/24) was 1. For the same compound, the “No. of subjects developing breast carcinoma” value (breast carcinoma; HLX-801 80 mg, patients group 7/17) was 1, the “No. of subjects developing breast carcinoma” value (breast carcinoma; HLX-801 80 mg, patients group 7/21) was 1 and the “No. of subjects developing breast carcinoma” value (breast carcinoma; HLX-801 80 mg, patients group 7/24) was 1. For the same compound, the “bone loss (long-term risk of fractures)” value [1] was “no evidence of bone loss”, the muscle aches [1] was “no reports of muscle aches” and the “uterine thickening (indicator of risk for treatment-induced uterine cancer)” value [1] was “no evidence of uterine thickening”. For the same compound, the “venous thrombembolism (indicator of risk for stroke)” value [1] was “no evidence of venous thrombembolism”.

In the case of `CC/C(=C(\c1ccccc1)c1ccc(OCCN(C)C)cc1)c1ccccc1` [TAM, Tamoxifen, reference compound], the “No. of subjects developing breast carcinoma” value (breast carcinoma; TAM 1 mg, patients group 7/17) is reported as 12, the “No. of subjects developing breast carcinoma” value (breast carcinoma; TAM 1 mg, patients group 7/21) is reported as 11 and the “No. of subjects developing breast carcinoma” value (breast carcinoma; TAM 1 mg, patients group 7/24 (# of cohorts/# of subjects per cohort)) is reported as 12. The “reduction of the risk to progression to breast cancer” value (breast cancer) was 30%.
